These results are taken from paper PMC7585200, “Methanosarcina acetivorans contains a functional ISC system for iron-sulfur cluster biogenesis” (BMC Microbiology, 2020).

Assay [1] concerns the target T1, IscS2 (Methanosarcina acetivorans, UniProt Q8TME0).
T1 construct: gene iscS; full-length, N-terminal His6-tag (pET28a) cut with thrombin, E. coli Rosetta (DE3) pLacI; homodimer (84 kDa by SEC)
Description: sulfide release, methylene blue assay ([…] nm). Type of assay: biochemical. As to conditions: 1 mM L-cysteine, 1 mM DTT, 50 mM Tris pH 7.5, 25 °C, with or without 50 μM PLP.

The target in assay [2] is T1, IscS2. Description: UV-visible spectrum ([…] nm) and cysteine desulfurase activity with and without PLP. Type of assay: biochemical. As to conditions: PLP reconstitution at pH 7.2, 25 °C; assay 50 mM Tris pH 7.5, 1 mM L-cysteine, 1 mM DTT, 50 μM PLP.
In assay [3] the target is Methanosarcina acetivorans IscS2 (MA2718), reconstituted with PLP (Methanosarcina acetivorans). Description: SEC; IscS2^PLP (3.3 mg loaded) on HiPrep 16/60 Sephacryl S-200, 0.5 ml/min, 50 mM Tris pH 8.0, 150 mM NaCl, 2 mM DTT, 10% glycerol; calibrated with standard proteins; calculated 84 kDa.

T1 sequence (Q8TME0 entry or part of it): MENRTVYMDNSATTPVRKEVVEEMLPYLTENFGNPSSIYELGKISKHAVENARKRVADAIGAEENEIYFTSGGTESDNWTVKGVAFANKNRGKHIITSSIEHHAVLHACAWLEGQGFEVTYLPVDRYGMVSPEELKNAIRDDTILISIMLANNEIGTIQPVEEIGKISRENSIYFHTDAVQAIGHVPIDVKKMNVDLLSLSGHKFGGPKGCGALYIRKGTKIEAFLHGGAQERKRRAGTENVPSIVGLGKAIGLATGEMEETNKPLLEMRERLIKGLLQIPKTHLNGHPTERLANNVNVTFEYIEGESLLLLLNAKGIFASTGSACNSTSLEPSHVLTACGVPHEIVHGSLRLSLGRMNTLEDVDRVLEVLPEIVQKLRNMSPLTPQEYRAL

As to `N[C@@H](CS)C(=O)O` [L-cysteine], at IscS2 [1], the “sulfide release, methylene blue assay (670 nm)” value is “Purified IscS2 was able to remove sulfur from L-cysteine”. As to `Cc1ncc(COP(=O)(O)O)c(C=O)c1O` [PLP], the “UV-visible spectrum (420 nm) and cysteine desulfurase activity with and without” value on IscS2 [2] was “these results reveal that IscS2 is a PLP-dependent cysteine desulfurase”. On to “Methanosarcina acetivorans IscS2 (MA2718), reconstituted with PLP (enzyme)”, for which the stoichiometry N in assay [3] is 2.

As a reminder, the stoichiometry N is a count of units in the complex or per binding partner.
